Laboratory results published in patent US20160257651A1, “NOVEL COMPOUND WITH ANTIBACTERIAL ACTIVITY” (priority 2013, published 2016).
Converted amounts (≈) assume the structure as drawn. Like-named read-outs stand apart in the source and are kept apart here.

Key:
[1] = tested on: S. aureus Mu50; assay: microbe, parasite or virus in culture; format: cell-based, Staphylococcus aureus; settings: for MIC: S. aureus Mu50, quinolone-resistant MRSA, ParC S80F, GyrA S84L; for MIC ratio (Mu50 MIC/FDA209P MIC): MIC for S. aureus Mu50 / MIC for S. aureus FDA209P
Protocol: (§1) Then, the cell suspension was diluted 500 times with CAMHB mentioned above.

[2] = tested on: S. aureus FDA209P (ATCC 6538P); assay: microbe, parasite or virus in culture; format: cell-based, Staphylococcus aureus; settings: quinolone-susceptible MSSA, ParC 80S, GyrA 84S
Protocol: as §1

[3] = tested on: E. coli strain 1708; assay: Antibacterial activity against Escherichia coli
Text: (§9) The numerical values in the tables indicate MIC (mg/L), Res means resistant bacterium, and Sus means susceptible bacterium.
(§10) Antibacterial activities against Escherichia coli of the compounds shown Table 19 were examined by the following method.
(§11) After completion of the culture, the cells were suspended in fresh TBS to prepare a cell suspension showing an absorbance of 0.3 at 578 nm.

[4] = tested on: E. coli strain 1709; assay: Antibacterial activity against Escherichia coli
Text: as §9, §10, §11

[5] = tested on: S. pneumoniae BCLSP37; assay: MIC against pneumococcus, CAMHB with 5 mass % LHB; format: cell-based, Streptococcus pneumoniae; settings: Streptococcus pneumoniae, BCLSP37, S. pneumoniae BCLSP37, PSSP, quinolone-resistant; ParC 79Phe, GyrA 85Lys; read-out: MIC
Protocol: (§2) The S. pneumoniae strains used for this test belong to any one of the categories of penicillin-susceptible pneumococcus (penicillin-susceptible Streptococcus pneumoniae, PSSP), penicillin-intermediate pneumococcus (penicillin-intermediate Streptococcus pneumoniae, PISP), and penicillin-resistant pneumococcus (penicillin-resistant Streptococcus pneumoniae, PRSP).
(§3) The lysed horse blood was prepared by adding sterilized water to horse sterile defibered blood (produced by Nippon Bio-Supp. Center) at a ratio of 1:1, subjecting the mixture to freezing and thawing 5 times, then centrifuging the mixture twice at 10,000 rpm for 20 minutes, and filtering the supernatant through a filter.
(§4) The S. pneumoniae strains mentioned in Table 11 were each cultured overnight at 37° C. on a blood agar medium as stationary culture. The blood agar medium was prepared by adding 5 mass % ovine sterile defibered blood (produced by Nippon Bio-Supp. Center) to a heart infusion agar medium (produced by EIKEN CHEMICAL). Each S. pneumoniae strain cultured overnight at 37° C. as stationary culture was further subcultured overnight at 37° C. on fresh blood agar medium as stationary culture. After completion of the culture, cells of each pneumococcus strain were collected with a swab, and suspended in physiological saline, and the suspension was adjusted with physiological saline to show absorbance of 0.08 to 0.13 at 625 nm as measured with an absorbance meter (produced by Amersham), and further diluted 200 times with CAMHB containing 5 mass % LHB.
(§5) In Table 11, the amino acid substitution mutations in QRDR of the strains are underlined.

[6] = tested on: S. pneumoniae KBSP11; assay: MIC against pneumococcus, CAMHB with 5 mass % LHB; format: cell-based, Streptococcus pneumoniae; settings: Streptococcus pneumoniae, PRSP
Protocol: as §2, §3, §4, §5

[7] = tested on: E. faecalis NCTC12201; assay: MIC against Enterococcus bacteria; format: cell-based; settings: Enterococcus faecalis, NCTC 12201 / VRE, quinolone-susceptible
Protocol: (§6) Antibacterial activities of the compound J-131CP against Enterococcus bacteria (Enterococcus faecium and Enterococcus faecalis) were examined by the following methods.
(§7) The compound J-131CP and quinolones were prepared in the same manner as that of Test Example 1-1.
(§8) Cell suspensions were prepared in the same manner as that of Test Example 1-1 described in the section of measurement of MIC in Test Example 1-1, except that the Enterococcus bacterium strains mentioned in Table 8 were used instead of Staphylococcus aureus, and MICs of the compound J-131CP and quinolones as control were determined for the strains in the same manner as that of Test Example 1-1 described in the section of measurement of MIC in Test Example 1-1. In Table 8, the amino acid substitution mutations in QRDR of the strains are underlined.

[8] = tested on: E. faecalis 36-15722; assay: MIC against Enterococcus bacteria; format: cell-based, Enterococcus faecalis; settings: Enterococcus faecalis, 3615722; E. faecalis 36-15722, quinolone-resistant; ParC 80Ile, GyrA 84Ile; read-out: MIC
Protocol: as §6, §7, §8

[9] = Staphylococcus aureus, ATCC 6538P / FDA209P / MSSA, read-out: MIC

Compound | MIC ([1]; Staphylococcus aureus, MRSA) [µg/mL] | MIC [2, 9] [µg/mL] | MIC [3] [µg/mL] | MIC [4] [µg/mL] | MIC ratio (Mu50 MIC/FDA209P MIC) [1] | MIC [1] [µg/mL] | MIC [2] [µg/mL] | further results
O=c1cc(O)c2ccc(-c3ccc(O)cc3)c(OC(F)F)c2n1C1CC1 [J-158] | 4 (≈ 11.1 µM) | 8 (≈ 22.3 µM) | 128 (≈ 356 µM) | 128 (≈ 356 µM) | – | – | – | –
CNc1ncc(-c2ccc3c(CO)cc(=O)n(C4CC4)c3c2)cc1C [J-165] | 8 (≈ 23.9 µM) | 4 (≈ 11.9 µM) | 128 (≈ 382 µM) | 128 (≈ 382 µM) | – | – | – | –
Nc1ccc(-c2cc3c(cc2F)c(COC(=O)CC(=O)O)cc(=O)n3C2CC2)cc1 [J-135, 2-({[7-(4-aminophenyl)-1-cyclopropyl-6-fluoro-2-oxo-4-hydroquinolyl]methyl}oxycarbonyl)acetic acid] | – | – | – | – | 1 | 8 (≈ 19.5 µM) | 8 (≈ 19.5 µM) | –
O=c1cc(CO)c2cc(F)c(N3CCC(O)CC3)cc2n1C1CC1 [J-147, 1-cyclopropyl-6-fluoro-4-(hydroxymethyl)-7-(4-hydroxypiperidin-1-yl)quinolin-2(1H)-one] | 16 (≈ 48.1 µM) | 32 (≈ 96.3 µM) | – | – | 0.5 | – | – | –
CC(=O)OCc1cc(=O)n(C2CC2)c2cc(-c3ccc(O)cc3)c(F)cc12 [J-131ACp, [1-cyclopropyl-6-fluoro-7-(4-hydroxyphenyl)-2-oxo-4-hydroquinolyl]methyl.acetate] | 4 | 64 | 128 | 128 | 0.0625 | – | – | –
CCC(=O)OCc1cc(=O)n(C2CC2)c2cc(-c3ccc(N)cc3)c(F)cc12 [J-138, [7-(4-aminophenyl)-1-cyclopropyl-6-fluoro-2-oxo-4-hydroquinolyl]methyl propanoate] | – | – | – | – | 1 | 2 (≈ 5.26 µM) | 2 (≈ 5.26 µM) | –
O=c1cc(CO)c2ccc(-c3ccc(O)cc3)cc2n1C1CC1 [J-121Cp, 1-cyclopropyl-4-hydroxymethyl-7-(4-hydroxy-phenyl)-1H-quinolin-2-one] | 0.5 (≈ 1.63 µM) | 1 (≈ 3.25 µM) | – | – | 0.5 | – | – | –
CCn1c(=O)cc(CO)c2cc(F)c(-c3ccc(O)cc3)cc21 [J-131E, 1-ethyl-6-fluoro-4-(hydroxymethyl)-7-(4-hydroxyphenyl)hydroquinolin-2-one] | – | – | – | – | 0.25 | 0.5 (≈ 1.6 µM) | 2 (≈ 6.38 µM) | –
O=c1cc(CO)c2ccc(-c3ccc(O)cc3)c3c2n1CO3 [J-2.1.2, 6-(hydroxymethyl)-9-(4-hydroxyphenyl)oxazolo[5,4,3-ij]quinolin-4(2H)-one] | 16 (≈ 54.2 µM) | 128 (≈ 433 µM) | – | – | 0.125 | – | – | –
NC(=O)c1cc(=O)n(C2CC2)c2cc(-c3ccc(O)cc3)c(F)cc12 [J-173] | 2 (≈ 5.91 µM) | 8 (≈ 23.6 µM) | 128 (≈ 378 µM) | 128 (≈ 378 µM) | – | – | – | MIC [5]: 8 µg/mL (≈ 23.6 µM); MIC [6]: 8 µg/mL (≈ 23.6 µM)
9-(hydroxyphenyl)-6-methyloxazolo[5,4,3-ij]quinolin-4(2H)-one [J-2.1.1] | – | – | – | – | 0.5 | 16 | 32 | –
COc1c(-c2ccc(O)cc2)ccc2c(CO)cc(=O)n(C3CC3)c12 [J-157, 1-cyclopropyl-8-methoxyl-4-(hydroxymethyl)-7-(4-hydroxyphenyl)hydroquinolin-2-one] | – | – | – | – | 0.5 | 2 (≈ 5.93 µM) | 4 (≈ 11.9 µM) | –
C[C@H]1COc2c(-c3ccc(O)cc3)c(F)cc3c(CO)cc(=O)n1c23 [J-149A] | 0.5 (≈ 1.46 µM) | 0.25 (≈ 0.732 µM) | 128 (≈ 375 µM) | 16 (≈ 46.9 µM) | – | – | – | –
Cn1c(=O)cc(CO)c2cc(F)c(-c3ccc(O)cc3)cc21 [J-131, 6-fluoro-4-(hydroxymethyl)-7-(4-hydroxyphenyl)-1-methylhydroquinolin-2-one] | – | – | – | – | 0.25 | 4 (≈ 13.4 µM) | 16 (≈ 53.5 µM) | –
Cc1cc2c(CO)cc(=O)n(C3CC3)c2cc1-c1ccc(O)cc1 [J-140, 1-cyclopropyl-4-(hydroxymethyl)-7-(4-hydroxyphenyl)-6-methylhydroquinolin-2-one] | – | – | – | – | 0.25 | 0.25 (≈ 0.778 µM) | 1 (≈ 3.11 µM) | –
Nc1ccc(-c2cc3c(cc2F)c(COC(=O)CCC(=O)O)cc(=O)n3C2CC2)cc1 [J-136, 3-({[7-(4-aminophenyl)-1-cyclopropyl-6-fluoro-2-oxo-4-hydroquinolyl]methyl}oxycarbonyl)propanoic acid] | – | – | – | – | 0.25 | 8 (≈ 18.8 µM) | 32 (≈ 75.4 µM) | –
O=c1cc(CO)c2cc(Cl)c(-c3ccc(O)cc3)cc2n1C1CC1 [J-152] | 0.25 (≈ 0.731 µM) | 1 (≈ 2.93 µM) | 128 (≈ 374 µM) | 128 (≈ 374 µM) | – | – | – | –
O=C(O)c1c(CO)c2cc(F)c(-c3ccc(O)cc3)cc2n(C2CC2)c1=O [J-169] | 8 (≈ 21.7 µM) | 8 (≈ 21.7 µM) | 128 (≈ 347 µM) | 16 (≈ 43.3 µM) | – | – | – | –
CCc1cc(=O)n(C2CC2)c2cc(-c3ccc(O)cc3)c(F)cc12 [J-150, 1-cyclopropyl-4-ethyl-6-fluoro-7-(4-hydroxyphenyl)hydroquinolin-2-one] | – | – | – | – | 0.0625 | 0.25 (≈ 0.773 µM) | 4 (≈ 12.4 µM) | –
Cn1c(=O)cc(CO)c2cc(F)c(-c3ccc(N)cc3)cc21 [J-132, 7-(4-aminophenyl)-6-fluoro-4-(hydroxymethyl)-1-methylhydroquinolin-2-one] | – | – | – | – | 0.0625 | 8 (≈ 26.8 µM) | 128 (≈ 429 µM) | –
CN1CCN(c2cc3c(cc2F)c(CO)cc(=O)n3C2CC2)CC1 [J-146, 1-cyclopropyl-6-fluoro-4-(hydroxymethyl)-7-(4-methylpiperazin-1-yl)quinolin-2(1H)-one] | 16 (≈ 48.3 µM) | 16 (≈ 48.3 µM) | – | – | 1 | – | – | –
COCc1cc(=O)n(C2CC2)c2cc(-c3ccc(O)cc3)c(F)cc12 [J-175] | 0.5 (≈ 1.47 µM) | 1 (≈ 2.95 µM) | 128 (≈ 377 µM) | 128 (≈ 377 µM) | – | – | – | MIC [5]: 8 µg/mL (≈ 23.6 µM); MIC [6]: 32 µg/mL (≈ 94.3 µM)
Cn1c(=O)cc(CO)c2ccc3c(c21)OCO3 [J-103, 6-(hydroxymethyl)-9-methyl-9-hydro-2H-1,3-dioxoleno[4,5-h]quinolin-8-one] | – | – | – | – | 0.125 | 16 (≈ 68.6 µM) | 128 (≈ 549 µM) | –
Nc1c(CO)c2cc(F)c(-c3ccc(O)cc3)cc2n(C2CC2)c1=O [J-179] | 1 (≈ 2.94 µM) | 0.5 (≈ 1.47 µM) | 128 (≈ 376 µM) | 128 (≈ 376 µM) | – | – | – | –
CC(O)c1cc(=O)n(C2CC2)c2cc(-c3ccc4c(c3)CNC4C)c(F)cc12 (stereo not drawn) [J-144M] | 4 (≈ 10.6 µM) | 0.5 (≈ 1.32 µM) | 128 (≈ 338 µM) | 4 (≈ 10.6 µM) | – | – | – | MIC [7]: 1 µg/mL (≈ 2.64 µM); MIC [8]: 2 µg/mL (≈ 5.28 µM)
Cc1cc(=O)n2c3c(c(-c4ccc(O)cc4)c(F)cc13)OCC2C (stereo not drawn) [J-149d] | 0.5 (≈ 1.54 µM) | 1 (≈ 3.07 µM) | 128 (≈ 393 µM) | 128 (≈ 393 µM) | – | – | – | –
CC(=O)N1COc2c1ccc1c(CO)cc(=O)n(C)c21 [J-125a, 3-acetyl-6-(hydroxymethyl)-9-methyl-8-oxo 9-hydro-2H-1,3-oxazolino[4,5-h]quinoline] | – | – | – | – | 0.125 | 16 (≈ 58.3 µM) | 128 (≈ 467 µM) | –
Cc1cc(=O)n(C)c2cc(-c3ccc(O)cc3)ccc12 [J-121Me] | 4 (≈ 15.1 µM) | 128 (≈ 482 µM) | – | – | 0.0313 | – | – | –
